In ChEMBL document CHEMBL1138058, “Discovery and evaluation of N-cyclopropyl- 2,4-difluoro-5-((2-(pyridin-2-ylamino)thiazol-5-ylmethyl)amino)benzamide (BMS-605541), a selective and orally efficacious inhibitor of vascular endothelial growth factor receptor-2” (J Med Chem, 2006):
Values belong to the compound of their own block, whether it stands above or below them.

Columns and labels:
L2987 [1] = assay: Antiproliferative activity against L2987 cells; conditions: Homo sapiens
HUVEC = assay: Antiproliferative activity against VEGF-stimulated HUVEC; conditions: Homo sapiens
[2] = biological target: Dual specificity mitogen-activated protein kinase kinase 1 (Homo sapiens, UniProt Q02750); assay: Inhibition of MEK
Chain of Dual specificity mitogen-activated protein kinase kinase 1 (Q02750 whole entry): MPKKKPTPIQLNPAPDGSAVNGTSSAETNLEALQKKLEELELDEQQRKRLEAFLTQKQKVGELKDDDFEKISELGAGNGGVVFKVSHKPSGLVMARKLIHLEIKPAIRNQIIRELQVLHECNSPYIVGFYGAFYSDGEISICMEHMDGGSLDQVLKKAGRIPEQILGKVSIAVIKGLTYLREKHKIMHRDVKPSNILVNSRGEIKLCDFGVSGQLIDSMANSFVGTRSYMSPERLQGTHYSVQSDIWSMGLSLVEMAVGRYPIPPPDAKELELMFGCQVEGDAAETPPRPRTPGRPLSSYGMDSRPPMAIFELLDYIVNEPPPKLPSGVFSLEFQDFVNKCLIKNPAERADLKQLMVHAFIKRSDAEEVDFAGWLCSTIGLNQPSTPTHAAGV

MAP kinase p38 = MAP kinase p38 (Homo sapiens, UniProt O15264+Q15759+Q16539+P53778); assay: Inhibition of p38; assay type: protein assay
[3] = biological target: Fibroblast growth factor receptor 1 (Homo sapiens, UniProt P11362); assay: Inhibition of FGFR1
Cynomolgus monkey [4] = assay: AUC in cynomolgus monkey at 5 mg/kg, po; assay type: ADME, organism-based, Macaca fascicularis, Plasma; set-up: dose 5 mg/kg, route oral; conditions: in vivo
L2987 [5] = assay: Inhibition of tumor growth in Athymic mouse xenografted with L2987 at 50 mg/kg after 14 days; assay type: functional, Homo sapiens; conditions: L2987, 336 h, read-out: TGI
[6] = Cmax in Balb/C mouse at 90 mg/kg, po; assay type: ADME, organism-based; set-up: dose 90 mg/kg, route oral; conditions: in vivo
[7] = biological target: Vascular endothelial growth factor receptor 2 (Homo sapiens, UniProt P35968)
Chain of Vascular endothelial growth factor receptor 2 (P35968 whole entry): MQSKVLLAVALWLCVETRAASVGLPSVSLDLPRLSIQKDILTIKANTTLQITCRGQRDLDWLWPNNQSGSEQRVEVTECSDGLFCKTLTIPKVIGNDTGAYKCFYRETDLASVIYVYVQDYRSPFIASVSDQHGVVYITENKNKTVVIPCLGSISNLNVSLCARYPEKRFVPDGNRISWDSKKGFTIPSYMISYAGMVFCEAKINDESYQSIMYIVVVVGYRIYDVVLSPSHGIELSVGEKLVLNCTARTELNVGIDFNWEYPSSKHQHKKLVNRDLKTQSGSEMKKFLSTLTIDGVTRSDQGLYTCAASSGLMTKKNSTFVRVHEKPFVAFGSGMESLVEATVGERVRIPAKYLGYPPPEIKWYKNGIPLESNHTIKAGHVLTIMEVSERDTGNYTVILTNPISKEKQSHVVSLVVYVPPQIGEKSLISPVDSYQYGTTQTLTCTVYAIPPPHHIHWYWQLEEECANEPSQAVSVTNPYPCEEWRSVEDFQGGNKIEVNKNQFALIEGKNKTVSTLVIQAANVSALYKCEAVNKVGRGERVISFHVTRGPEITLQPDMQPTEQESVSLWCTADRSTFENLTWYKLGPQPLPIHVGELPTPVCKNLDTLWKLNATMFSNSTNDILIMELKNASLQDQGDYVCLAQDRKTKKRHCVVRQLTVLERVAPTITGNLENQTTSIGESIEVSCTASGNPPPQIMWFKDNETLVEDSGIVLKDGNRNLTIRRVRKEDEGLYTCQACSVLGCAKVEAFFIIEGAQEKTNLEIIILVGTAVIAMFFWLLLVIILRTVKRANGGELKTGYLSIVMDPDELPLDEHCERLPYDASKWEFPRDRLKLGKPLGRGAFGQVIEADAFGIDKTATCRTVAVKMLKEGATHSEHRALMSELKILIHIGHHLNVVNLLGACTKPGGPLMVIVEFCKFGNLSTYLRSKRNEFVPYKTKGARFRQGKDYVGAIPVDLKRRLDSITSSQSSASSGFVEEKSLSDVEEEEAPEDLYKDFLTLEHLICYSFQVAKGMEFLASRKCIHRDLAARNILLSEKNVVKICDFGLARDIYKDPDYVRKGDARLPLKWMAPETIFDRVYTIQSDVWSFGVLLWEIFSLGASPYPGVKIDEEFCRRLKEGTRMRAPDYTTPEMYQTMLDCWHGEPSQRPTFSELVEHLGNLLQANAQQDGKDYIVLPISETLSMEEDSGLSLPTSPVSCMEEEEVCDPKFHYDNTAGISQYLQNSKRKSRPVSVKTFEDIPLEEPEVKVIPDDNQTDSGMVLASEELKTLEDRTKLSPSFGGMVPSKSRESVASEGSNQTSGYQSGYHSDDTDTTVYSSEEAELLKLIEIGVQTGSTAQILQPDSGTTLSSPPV

[8] = Bioavailability in Sprague-Dawley rat at 50 mg/kg, po; assay type: ADME, organism-based; conditions: in vivo
[9] = biological target: Proto-oncogene tyrosine-protein kinase Src (Homo sapiens, UniProt P12931); assay: Inhibition of Src
HCT-116 [10] = assay: Inhibition of tumor growth in Athymic mouse xenografted with HCT116 at 50 mg/kg after 14 days; assay type: functional, Homo sapiens; conditions: HCT-116, 336 h, read-out: TGI
[11] = Volume of distribution in Balb/C mouse at 10 mg/kg, iv; assay type: ADME, organism-based; set-up: dose 10 mg/kg, route intravenous; conditions: in vivo, read-out: Vss
[12] = biological target: Protein kinase C zeta type (Homo sapiens, UniProt Q05513); assay: Inhibition of PKCzeta
Chain of Protein kinase C zeta type (Q05513 whole entry): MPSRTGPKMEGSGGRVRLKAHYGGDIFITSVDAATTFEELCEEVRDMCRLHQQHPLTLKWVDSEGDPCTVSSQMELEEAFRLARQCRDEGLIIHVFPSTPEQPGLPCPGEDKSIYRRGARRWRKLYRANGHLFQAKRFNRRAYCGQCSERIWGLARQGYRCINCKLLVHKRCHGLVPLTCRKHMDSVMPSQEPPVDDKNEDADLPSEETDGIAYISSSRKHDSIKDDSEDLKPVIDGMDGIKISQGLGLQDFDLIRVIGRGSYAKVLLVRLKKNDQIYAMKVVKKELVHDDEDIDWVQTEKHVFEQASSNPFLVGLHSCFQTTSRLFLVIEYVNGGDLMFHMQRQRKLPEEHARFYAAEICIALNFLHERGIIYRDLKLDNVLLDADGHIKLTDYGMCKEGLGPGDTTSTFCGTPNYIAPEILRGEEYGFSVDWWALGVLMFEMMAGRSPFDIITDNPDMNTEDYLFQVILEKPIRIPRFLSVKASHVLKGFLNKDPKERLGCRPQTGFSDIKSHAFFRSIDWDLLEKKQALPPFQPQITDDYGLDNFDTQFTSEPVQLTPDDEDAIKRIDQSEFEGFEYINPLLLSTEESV

[13] = biological target: Serine/threonine-protein kinase AKT (Homo sapiens, UniProt P31751+Q9Y243+P31749); assay: Inhibition of AKT; assay type: protein assay
[14] = biological target: Receptor tyrosine-protein kinase erbB-2 (Homo sapiens, UniProt P04626); assay: Inhibition of Her2
[15] = biological target: Vascular endothelial growth factor receptor 2 (Mus musculus) (UniProt P35918); assay: Inhibition of FLK1
[16] = Mean residence time in cynomolgus monkey at 5 mg/kg, po; assay type: ADME, organism-based, Macaca fascicularis; set-up: dose 5 mg/kg, route oral; conditions: in vivo
[17] = Tmax in Balb/C mouse at 90 mg/kg, po; assay type: ADME, organism-based; set-up: dose 90 mg/kg, route oral; conditions: in vivo
[18] = biological target: Tyrosine-protein kinase SYK (Homo sapiens, UniProt P43405); assay: Inhibition of Syk
[19] = Mean residence time in Sprague-Dawley rat at 50 mg/kg, po; assay type: ADME, organism-based; set-up: dose 50 mg/kg, route oral; conditions: in vivo
L2987 [20] = assay: Inhibition of tumor growth in Athymic mouse xenografted with L2987 at 25 mg/kg after 14 days; assay type: functional, Homo sapiens; conditions: L2987, 336 h, read-out: TGI
[21] = biological target: Tyrosine-protein kinase JAK3 (Homo sapiens, UniProt P52333); assay: Inhibition of JAK3
[22] = biological target: Glycogen synthase kinase-3 (Homo sapiens, UniProt P49840+P49841); assay: Inhibition of GSK3; assay type: protein assay
[23] = biological target: Platelet-derived growth factor receptor beta (Homo sapiens, UniProt P09619); assay: Inhibition of PDGFR beta
Chain of Platelet-derived growth factor receptor beta (P09619 whole entry): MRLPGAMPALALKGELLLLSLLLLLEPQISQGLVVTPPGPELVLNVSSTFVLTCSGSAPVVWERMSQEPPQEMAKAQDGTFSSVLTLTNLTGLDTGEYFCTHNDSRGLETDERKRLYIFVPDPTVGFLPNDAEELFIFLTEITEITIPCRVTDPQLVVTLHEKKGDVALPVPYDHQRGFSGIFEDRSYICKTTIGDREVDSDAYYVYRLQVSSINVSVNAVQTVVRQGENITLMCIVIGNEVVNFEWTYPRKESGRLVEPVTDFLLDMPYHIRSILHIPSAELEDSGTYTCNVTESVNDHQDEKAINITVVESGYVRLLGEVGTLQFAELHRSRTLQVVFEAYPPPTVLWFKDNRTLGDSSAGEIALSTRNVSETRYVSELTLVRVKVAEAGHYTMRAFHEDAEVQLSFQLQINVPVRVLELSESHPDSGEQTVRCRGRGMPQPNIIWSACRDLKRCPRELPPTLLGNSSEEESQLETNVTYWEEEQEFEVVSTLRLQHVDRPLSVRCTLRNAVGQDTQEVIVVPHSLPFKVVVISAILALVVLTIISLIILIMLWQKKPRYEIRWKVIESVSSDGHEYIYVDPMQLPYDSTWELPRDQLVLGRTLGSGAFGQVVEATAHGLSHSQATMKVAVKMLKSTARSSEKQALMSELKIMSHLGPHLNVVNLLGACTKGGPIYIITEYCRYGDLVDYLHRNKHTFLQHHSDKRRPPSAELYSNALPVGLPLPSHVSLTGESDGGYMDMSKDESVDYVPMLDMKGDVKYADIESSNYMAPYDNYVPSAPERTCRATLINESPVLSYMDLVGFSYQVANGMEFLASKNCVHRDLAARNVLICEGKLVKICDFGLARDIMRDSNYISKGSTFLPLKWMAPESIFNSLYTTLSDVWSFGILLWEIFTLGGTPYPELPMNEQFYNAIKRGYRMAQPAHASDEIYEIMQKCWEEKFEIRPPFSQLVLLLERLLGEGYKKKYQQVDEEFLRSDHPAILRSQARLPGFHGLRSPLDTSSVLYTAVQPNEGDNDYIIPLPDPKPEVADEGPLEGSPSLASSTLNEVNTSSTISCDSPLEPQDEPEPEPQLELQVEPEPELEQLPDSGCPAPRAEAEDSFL

[24] = biological target: Cyclin-dependent kinase 2 (Homo sapiens, UniProt P24941); assay: Inhibition of CDK2
[25] = biological target: Protein kinase C alpha type (Homo sapiens, UniProt P17252); assay: Inhibition of PKCalpha
[26] = biological target: Mast/stem cell growth factor receptor Kit (Homo sapiens, UniProt P10721); assay: Inhibition of c-kit
Chain of Mast/stem cell growth factor receptor Kit (P10721 whole entry): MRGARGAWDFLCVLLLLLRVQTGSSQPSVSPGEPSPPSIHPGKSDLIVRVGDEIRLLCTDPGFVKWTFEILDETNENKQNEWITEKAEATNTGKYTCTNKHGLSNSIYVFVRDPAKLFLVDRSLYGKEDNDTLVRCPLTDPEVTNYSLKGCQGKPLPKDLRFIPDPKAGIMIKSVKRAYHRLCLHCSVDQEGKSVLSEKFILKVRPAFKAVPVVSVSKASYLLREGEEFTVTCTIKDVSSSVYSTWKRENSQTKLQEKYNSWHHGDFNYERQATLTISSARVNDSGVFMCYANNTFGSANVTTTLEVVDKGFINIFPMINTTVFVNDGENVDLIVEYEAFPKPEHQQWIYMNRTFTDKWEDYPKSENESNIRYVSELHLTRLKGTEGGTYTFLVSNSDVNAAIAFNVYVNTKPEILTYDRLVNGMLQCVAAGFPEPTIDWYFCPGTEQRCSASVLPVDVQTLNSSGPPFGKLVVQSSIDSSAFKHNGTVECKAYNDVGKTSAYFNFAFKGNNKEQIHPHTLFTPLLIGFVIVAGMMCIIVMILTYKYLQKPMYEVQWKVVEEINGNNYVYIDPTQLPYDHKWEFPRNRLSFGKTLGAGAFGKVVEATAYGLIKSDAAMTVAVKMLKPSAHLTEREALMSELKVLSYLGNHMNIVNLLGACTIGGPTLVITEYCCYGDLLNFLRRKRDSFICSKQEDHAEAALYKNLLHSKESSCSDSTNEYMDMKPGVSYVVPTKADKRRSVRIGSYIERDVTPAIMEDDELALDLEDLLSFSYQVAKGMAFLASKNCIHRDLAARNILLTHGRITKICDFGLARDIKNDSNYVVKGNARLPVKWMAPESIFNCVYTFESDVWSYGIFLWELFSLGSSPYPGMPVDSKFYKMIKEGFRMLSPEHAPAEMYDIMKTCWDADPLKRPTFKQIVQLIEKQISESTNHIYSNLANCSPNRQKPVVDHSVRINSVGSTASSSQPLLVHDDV

L2987 [27] = assay: Inhibition of tumor growth in Athymic mouse xenografted with L2987 at 180 mg/kg after 14 days; assay type: functional, Homo sapiens; conditions: L2987, 336 h, read-out: TGI
[28] = Tmax in cynomolgus monkey at 5 mg/kg, po; assay type: ADME, organism-based, Macaca fascicularis; set-up: dose 5 mg/kg, route oral; conditions: in vivo
[29] = Cmax in Sprague-Dawley rat at 50 mg/kg, po; assay type: ADME, organism-based; set-up: dose 50 mg/kg, route oral; conditions: in vivo
[30] = Half life in Sprague-Dawley rat at 50 mg/kg, po; assay type: ADME, organism-based; set-up: dose 50 mg/kg, route oral; conditions: in vivo
[31] = biological target: Inhibitor of NF-kappa-B kinase (IKK) (Homo sapiens, UniProt O14920+O15111+Q9Y6K9); assay: Inhibition of IKK; assay type: protein-complex assay
L2987 [32] = assay: Inhibition of tumor growth in Athymic mouse xenografted with L2987 at 60 mg/kg after 14 days; assay type: functional, Homo sapiens; conditions: L2987, 336 h, read-out: TGI
[33] = biological target: Tyrosine-protein kinase ITK/TSK (Homo sapiens, UniProt Q08881); assay: Inhibition of Itk
[34] = biological target: Vascular endothelial growth factor receptor 1 (Homo sapiens, UniProt P17948); assay: Inhibition of VEGFR1
HCT-116 [35] = assay: Inhibition of tumor growth in Athymic mouse xenografted with HCT116 at 25 mg/kg after 14 days; assay type: functional, Homo sapiens; conditions: HCT-116, 336 h, read-out: TGI
[36] = Half life in Balb/C mouse at 90 mg/kg, po; assay type: ADME, organism-based; set-up: dose 90 mg/kg, route oral; conditions: in vivo
[37] = Clearance in Sprague-Dawley rat at 10 mg/kg, iv; assay type: ADME, organism-based; set-up: dose 10 mg/kg, route intravenous; conditions: in vivo
HCT-116 [38] = assay: Inhibition of tumor growth in Athymic mouse xenografted with HCT116 at 12.5 mg/kg after 14 days; assay type: functional, Homo sapiens; conditions: HCT-116, 336 h, read-out: TGI
[39] = Bioavailability in Balb/C mouse at 90 mg/kg, po; assay type: ADME, organism-based; conditions: in vivo
[40] = Clearance in Balb/C mouse at 10 mg/kg, iv; assay type: ADME, organism-based; set-up: dose 10 mg/kg, route intravenous; conditions: in vivo
SRSF protein kinase 1 = SRSF protein kinase 1 (Homo sapiens, UniProt Q96SB4); assay: Inhibition of SRPK1
Chain of SRSF protein kinase 1 (Q96SB4 whole entry): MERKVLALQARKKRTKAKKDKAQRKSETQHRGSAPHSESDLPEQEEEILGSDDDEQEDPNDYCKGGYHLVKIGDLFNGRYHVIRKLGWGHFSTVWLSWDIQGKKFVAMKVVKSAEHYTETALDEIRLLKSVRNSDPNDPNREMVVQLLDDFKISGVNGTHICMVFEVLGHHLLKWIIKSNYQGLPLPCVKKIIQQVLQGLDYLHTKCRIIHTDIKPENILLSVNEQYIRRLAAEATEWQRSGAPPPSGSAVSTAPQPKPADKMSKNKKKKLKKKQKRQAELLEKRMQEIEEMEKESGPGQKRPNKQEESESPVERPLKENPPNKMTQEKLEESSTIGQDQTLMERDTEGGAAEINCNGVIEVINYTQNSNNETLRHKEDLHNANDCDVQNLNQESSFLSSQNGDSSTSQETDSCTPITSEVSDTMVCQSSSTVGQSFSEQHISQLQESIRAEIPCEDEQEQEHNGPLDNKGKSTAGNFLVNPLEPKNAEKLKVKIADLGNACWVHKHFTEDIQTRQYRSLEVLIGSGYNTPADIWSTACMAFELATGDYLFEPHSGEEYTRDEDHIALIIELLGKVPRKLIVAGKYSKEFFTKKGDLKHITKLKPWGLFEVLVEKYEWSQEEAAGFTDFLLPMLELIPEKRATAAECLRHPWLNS

L2987 [41] = assay: Inhibition of tumor growth in Athymic mouse xenografted with L2987 at 90 mg/kg after 14 days; assay type: functional, Homo sapiens; conditions: L2987, 336 h, read-out: TGI
[42] = Volume of distribution in Sprague-Dawley rat at 10 mg/kg, iv; assay type: ADME, organism-based; set-up: dose 10 mg/kg, route intravenous; conditions: in vivo, read-out: Vss
[43] = biological target: Voltage-gated inwardly rectifying potassium channel KCNH2 (Homo sapiens, UniProt Q12809); assay: Inhibition of human ERG expressed in HEK293 cells; assay type: cell-based
[44] = Clearance in cynomolgus monkey at 1 mg/kg, iv; conditions: in vivo
[45] = biological target: MAP kinase-activated protein kinase 2 (Homo sapiens, UniProt P49137); assay: Inhibition of MAPKAPK2
[46] = Cmax in cynomolgus monkey at 5 mg/kg, po; assay type: ADME, organism-based, Macaca fascicularis; set-up: dose 5 mg/kg, route oral; conditions: in vivo
Mus musculus = assay: AUC (0-24h) in Balb/C mouse at 90 mg/kg, po; assay type: ADME, organism-based, Plasma; set-up: time < 24 hr, dose 90 mg/kg, route oral; conditions: in vivo
[47] = Tmax in Sprague-Dawley rat at 50 mg/kg, po; assay type: ADME, organism-based; set-up: dose 50 mg/kg, route oral; conditions: in vivo
[48] = biological target: Protein kinase C delta type (Homo sapiens, UniProt Q05655); assay: Inhibition of PKCdelta
[49] = biological target: Protein kinase C eta type (Homo sapiens, UniProt P24723); assay: Inhibition of PKCeta
Cynomolgus monkey [50] = assay: Volume of distribution in cynomolgus monkey at 1 mg/kg, iv; conditions: in vivo
[51] = Half life in cynomolgus monkey at 5 mg/kg, po; assay type: ADME, organism-based, Macaca fascicularis; set-up: dose 5 mg/kg, route oral; conditions: in vivo
[52] = Bioavailability in cynomolgus monkey at 5 mg/kg, po; assay type: ADME, organism-based, Macaca fascicularis; conditions: in vivo
Rattus norvegicus = assay: AUC in Sprague-Dawley rat at 50 mg/kg, po; assay type: ADME, organism-based, Plasma; set-up: dose 50 mg/kg, route oral; conditions: in vivo
[53] = biological target: Insulin-like growth factor 1 receptor (Homo sapiens, UniProt P08069); assay: Inhibition of IGF1R
[54] = Mean residence time in Balb/C mouse at 90 mg/kg, po; assay type: ADME, organism-based; set-up: dose 90 mg/kg, route oral; conditions: in vivo

SMILES: CNC(=O)c1cccc(NCc2cnc(Nc3ccccn3)s2)c1
IC50 (L2987 [1]): > 2.5 µM

SMILES: O=C(NCc1ccccn1)c1ccc(F)c(NCc2cnc(Nc3ccccn3)s2)c1
IC50 (L2987 [1]): > 2.5 µM | IC50 (HUVEC): 0.053 µM

SMILES: O=C(NC1CCCC1)c1ccc(F)c(NCc2cnc(Nc3ccccn3)s2)c1
IC50 (L2987 [1]): > 2.5 µM

SMILES: O=C(NC1CC1)c1ccc(F)c(CCc2cnc(Nc3ccccn3)s2)c1
IC50 (L2987 [1]): > 2.5 µM | IC50 (HUVEC): 0.005 µM

SMILES: O=C(NCCN1CCOCC1)c1ccc(F)c(NCc2cnc(Nc3ccccn3)s2)c1
IC50 (L2987 [1]): > 2.5 µM

SMILES: CNC(=O)c1cc(NCc2cnc(Nc3ccccn3)s2)c(F)cc1F
IC50 (L2987 [1]): > 2.5 µM | IC50 (HUVEC): 0.052 µM

SMILES: CNC(=O)c1ccc(F)c(NCc2cnc(Nc3ccccn3)s2)c1
IC50 (L2987 [1]): > 2.5 µM | IC50 (HUVEC): 0.02 µM

IC50 [2]: > 5 µM | IC50 (MAP kinase p38): > 5 µM | IC50 [3]: > 5 µM | AUC (Cynomolgus monkey [4]): 28.5 µM·h | Cmax [6]: 148 µM | IC50 [7]: 0.023 µM | bioavailability [8]: 100% | IC50 [9]: > 10 µM | Vd [11]: 1.7 L/kg | IC50 [12]: > 40 µM | IC50 [13]: > 5 µM | IC50 [14]: > 50 µM | IC50 [15]: 0.04 µM | MRT [16]: 7.9 h | Tmax [17]: 0.5 h | IC50 [18]: > 50 µM | MRT [19]: 3.5 h | IC50 [21]: > 50 µM | IC50 [22]: > 5 µM | IC50 [23]: 0.2 µM | IC50 [24]: > 10 µM | IC50 [25]: > 40 µM | IC50 [26]: 0.37 µM | Tmax [28]: 0.75 h | Cmax [29]: 44 µM | half-life [30]: 2.2 h | IC50 [31]: > 10 µM | IC50 [33]: > 50 µM | IC50 [34]: 0.4 µM | half-life [36]: 1.7 h | clearance [37]: 13.6 mL/min/kg | bioavailability [39]: 100% | clearance [40]: 11.8 mL/min/kg | IC50 (SRSF protein kinase 1): > 10 µM | Vd [42]: 1.1 L/kg | clearance [44]: 3.9 mL/min/kg | IC50 [45]: > 50 µM | Cmax [46]: 8 µM | AUC (Mus musculus): 649 µM·h | Tmax [47]: 2 h | IC50 [48]: > 40 µM | IC50 [49]: > 40 µM | Vss (Cynomolgus monkey [50]): 1.6 L/kg | half-life [51]: 7.1 h | bioavailability [52]: 52% | AUC (Rattus norvegicus): 202 µM·h | IC50 [53]: > 25 µM | MRT [54]: 3.4 h
SMILES: O=C(NC1CC1)c1cc(NCc2cnc(Nc3ccccn3)s2)c(F)cc1F
inhibition in vivo at 50 mg/kg (L2987 [5]): 67% | inhibition in vivo at 50 mg/kg (HCT-116 [10]): 64% | inhibition in vivo at 25 mg/kg (L2987 [20]): 23% | IC50 (L2987 [1]): > 2.5 µM | inhibition in vivo at 180 mg/kg (L2987 [27]): 67% | IC50 (HUVEC): 0.025 µM | inhibition in vivo at 60 mg/kg (L2987 [32]): 16% | inhibition in vivo at 25 mg/kg (HCT-116 [35]): 51% | inhibition in vivo at 12.5 mg/kg (HCT-116 [38]): 21% | inhibition in vivo at 90 mg/kg (L2987 [41]): 55% | IC50 [43]: 16.6 µM

SMILES: CNC(=O)c1cccc(CSc2cnc(Nc3ccccn3)s2)c1
IC50 (L2987 [1]): > 2.5 µM

SMILES: O=C(NC1CC1)c1ccc(F)c(NCc2cnc(Nc3ccccn3)s2)c1
IC50 (L2987 [1]): > 2.5 µM | IC50 (HUVEC): 0.014 µM

IC50 [7]: 1.9 µM | IC50 [24]: 0.05 µM
SMILES: COc1ccc(C(=O)Nc2ncc(SCc3ncc(C(C)(C)C)o3)s2)cc1OC

SMILES: CONC(=O)c1cccc(CSc2cnc(Nc3ccccn3)s2)c1
IC50 (L2987 [1]): > 2.5 µM | IC50 (HUVEC): 0.11 µM

SMILES: O=C(NCc1ccccc1)c1ccc(F)c(NCc2cnc(Nc3ccccn3)s2)c1
IC50 (L2987 [1]): > 2.5 µM | IC50 (HUVEC): 0.12 µM
